# Assay results published in publication PMC3723252, “Trypanocidal Activity of Thioamide-Substituted Imidazoquinolinone: Electrochemical Properties and Biological Effects” (Evidence-based Complementary and Alternative Medicine : eCAM, 2013).
# Where two headings read alike, the source gives them in different places.
# Experiments:
# [1] = tested on: T. cruzi; assay: Effect of DTT, ascorbic acid and GSH on anti-T. cruzi activity of C1; type: cell-based, Trypanosoma cruzi
# Description: (§1) Cells growth was assessed by counting the number of cells per mL of culture using a Neubauer chamber and was expressed as cellular density (CD). The percentage of inhibition (%I) was calculated as %I = {1 − [(CD4t − CD0)/(CD4c − CD0)]} × 100, where the different CDs represent the cellular density of CD4t, treated parasites on day 4; CD0, parasites on day 0; and CD4c, untreated parasites (control) on day 4.
# [2] = Cyclic voltammetry; type: physicochemical
# Description: Cyclic voltammograms for C1, C2, and C3 dissolved in 1% DMSO were carried out using an EQMAT instrument with an EQSOFT Processor, at a sweep rate of 0.2 V/s under a nitrogen atmosphere at room temperature, employing lithium perchlorate as supporting electrolyte. A three-electrode cell was used equipped with a vitreous carbon as working electrode, a gold wire as auxiliary electrode, and a saturated calomel as reference electrode.
# [3] = tested on: Epimastigotes of T. cruzi; assay: Parasite death by Annexin V-FITC/PI staining (flow cytometry); type: cell-based, Trypanosoma cruzi; details: for early apoptotic cells / late apoptotic cells: 22.5 μM; for early apoptotic cells: 0.8% at 0 h; for late apoptotic cells: 2.8% at 0 h; for viability at 22.5 µM: Trypanosoma cruzi, 95.9% for control (0 h), read-out: viable nonapoptotic cells
# Description: (§2) Epimastigotes of T. cruzi from a 4 days culture were incubated with C1 (7.5–22.5 μM) during 5–36 hours. Cells were harvested, washed and then the following biochemical assays were carried out.
# Cell viability and phosphatidylserine (PS) exposure on the parasite surface were assessed by propidium iodide (PI) and Annexin V-fluorescein isothiocyanate (FITC) staining, according to the manufacturer's instructions (Invitrogen). Epimastigotes exposed to 30% fresh human serum for 2 h at 28°C were used as positive control. Parasites were analysed by flow cytometry acquiring 20,000 events per sample.
# [4] = tested on: superoxide dismutase (SOD); assay: SOD activity in C1-treated epimastigotes; type: cell-based, Trypanosoma cruzi; details: control without C1 = 100%
# Description: as §2
# (§3) (b) Determination of Antioxidant Enzymes Activity. The activities of superoxide dismutase (SOD), ascorbate peroxidase (APx), and trypanothione reductase (TryR) were assayed as previously established.
# (§4) Protein concentration was determined according to the method described by Lowry et al.. These values were used to express the specific enzymatic activities as activity per mg of protein.
# [5] = tested on: Epimastigotes of T. cruzi; assay: Intracellular oxidative activity (H2DCFDA flow cytometry); type: cell-based, Trypanosoma cruzi; details: 7.5, 15 and 22.5 μM; 5, 12 and 24 h; data not shown
# Description: as §2
# (a) Assay of Intracellular Oxidative Activity. The intracellular oxidative activity was assessed by flow cytometry using the oxidant-sensitive fluorescent probe H2DCFDA. As a positive control cells were treated with 0.1 mM H2O2. Stained cells were then analyzed by a FACSCalibur flow cytometer (Becton Dickinson) with an excitation wavelength of 480 nm and an emission wavelength of 530 nm. Flow cytometry results were expressed by the ratio Gmt/Gmc, where Gmt and Gmc correspond to the geometric mean of histograms obtained for treated and untreated cells, respectively.
# [6] = tested on: Trypanosoma cruzi epimastigotes (Tulahuen strain); assay: Growth inhibition of epimastigotes (cell counting, 4 days); type: cell-based; details: 96 h, read-out: Epimastigotes IC50
# Description: (§5) Trypanosoma cruzi epimastigotes (Tulahuen strain) were grown as previously described. Bloodstream trypomastigotes were obtained from infected CF1 mice by cardiac puncture. Tulahuen strain expressing the β-galactosidase gene was kindly provided by Dr Buckner (University of Washington, USA).
# as §1
# (§6) The results presented are representative of three to four separate experiments, performed in duplicates or triplicates. All data are expressed as means ± standard errors of the mean (SEM). To calculate the IC50 values, the %I or %L values were plotted against the log of drug concentration (μM) and fitted with a straight line determined by a linear regression (Sigma Plot 10 software). The significance of differences was evaluated using Student' t test, taking a P < 0.05 as significant. Flow cytometry data were analyzed employing the WinMDI 2.9 software.
# [7] = tested on: Epimastigotes of T. cruzi; assay: Determination of total thiol groups (DTNB); type: cell-based, Trypanosoma cruzi
# Description: as §2
# (c) Determination of Total Thiol Groups. The thiol groups content was determined employing the chromogenic compound 5,5′-dithiobis-2-nitrobenzoate (DTNB), as already described.
# [8] = tested on: Epimastigotes of T. cruzi; assay: Cytochrome c release (Western blot, densitometry); type: cell-based, Trypanosoma cruzi; details: 22.5 μM, at 36 h, relative to level detected after 24 h
# Description: as §2
# (§7) Mitochondrial membrane potential was assessed using two well-established assays: 3,3′-dihexyloxacarbocyanine iodide (DiOC6) staining and the cytochrome c release.
# To evaluate the cytochrome c release, parasites (3 × 10^8) were resuspended in PBS containing 200 μg/mL digitonin, incubated on ice for 15 min and then centrifuged at 9 000 ×g for 10 min at 4°C. Both, mitochondrial-rich fraction (pellet, resuspended in 50 μL of PBS) and cytosolic fraction (150 μL) were subjected to Western-blot analysis for cytochrome c. Protein extracts (10 μL and 30 μL of mitochondrial and cytosolic fractions, resp.) were resolved by 14% SDS/PAGE, transferred to nitrocellulose membranes, blocked with 3% skimmed milk in PBS, and then incubated with specific antibodies, according to the protocol of Piacenza et al.. Relative intensities of bands were quantified by densitometry using Scion Image software (Scion). Results were expressed in arbitrary units.
# [9] = tested on: bloodstream trypomastigotes; assay: Trypanocidal effect on bloodstream trypomastigotes (24 h, mouse blood); type: cell-based; details: Trypanosoma cruzi, % lysed parasites
# Description: as §5
# The trypanocidal effects of C1, C2, C3, D and Bnz were also tested on bloodstream trypomastigotes according to a standard WHO protocol slightly modified. Briefly, mouse blood containing trypomastigotes was treated with different concentrations of each compound (0.30 to 350 μM) or Bnz (0.38 to 38 μM). Plates were incubated for 24 h, and surviving parasites were counted in a Neubauer chamber as previously described. Results were expressed as the percentage of lysed parasites (%L) relative to the number of parasites in the control: %L = [1 − (CDt/(CDc)] × 100, where CDt and CDc represent the cellular density of treated and untreated parasites, respectively.
# as §6
# [10] = tested on: trypanothione reductase (TryR); assay: TryR activity in C1-treated epimastigotes; type: cell-based, Trypanosoma cruzi; details: control without C1 = 100%
# Description: as §2, §3, §4
# [11] = tested on: ascorbate peroxidase (APx); assay: APx activity in C1-treated epimastigotes; type: cell-based, Trypanosoma cruzi; details: control without C1 = 100%
# Description: as §2, §3, §4
# [12] = tested on: Epimastigotes of T. cruzi; assay: Mitochondrial membrane potential (DiOC6 staining); type: cell-based, Trypanosoma cruzi; details: 22.5 μM, 31% for the control (0 h)
# Description: as §2, §7
# For the DiOC6 assay, epimastigotes (10^6) were permeabilized for 20 min at room temperature with 0.01% saponin, washed, and incubated with 30 nM DiOC6 for 30 min at 37°C. The positive control was done with 250 nM trifluoromethoxy carbonyl cyanide phenyl hydrazone (FCCP) as depolarizing agent. Stained cells were analyzed by flow cytometry with an excitation wavelength of 484 nm and an emission wavelength of 511 nm.
# [13] = tested on: amastigotes (Tulahuen strain expressing the β-galactosidase gene) in J774 cells; assay: Amastigote assay in infected J774 cells (β-galactosidase, CPRG); type: cell-based; details: Trypanosoma cruzi, 168 h, 7 days
# Description: as §5
# For analysis of amastigotes, J774 cells were infected with bloodstream trypomastigotes expressing the β-galactosidase gene at a parasite: cell ratio of 10 : 1. After 24 h, cell cultures were washed and each compound (2 to 100 μM) was added in fresh RPMI medium without phenol red (to avoid interference with absorbance readings at 570 nm). After 7 days, the assay was developed as described. The galactosidase activity was quantified using CPRG as substrate and measuring absorbance at 570 nm in a Microplate Reader (Bio-Rad Laboratories). Since the assayed compounds are coloured, blanks including uninfected cells with different doses of each compound were performed. The percentage of inhibition was calculated as %I = {1 − [(A it − A nit)/(A ic − A nic)]} × 100, where A represents the mean A 570 value recorded for A it, treated infected cells; A nit, treated noninfected cells; A ic, untreated infected cells; and A nic, untreated noninfected cells.
# as §6
# [14] = Cytotoxicity assay (MTT, 48 h); type: cell-based; details: African green monkey, Vero cells
# Description: Vero cells were cultivated with different concentrations of each compound (12.5–100.0 μM) or Bnz (3.0–3000 μM). After 48 h of incubation, cells were washed and viability was measured by the MTT assay as previously described. The selectivity index (SI) was calculated as the 50% cytotoxic concentration (CC50) obtained with Vero cells divided by the 50% inhibitory concentration (IC50) obtained with T. cruzi.
# [15] = 1% DMSO, sweep rate 0.2 V/s, saturated calomel reference electrode
smiles,measurement,setting,value
"O=c1c2ccccc2c(C(=S)Nc2ccccc2)c2n1CCN2 [Compound C1, N-phenyl-5-oxo-1,2,3,5-tetrahydroimidazo[1,2-b]isoquinolin-10-carbothioamide]",effect of DTT and ascorbic acid on the inhibitory action of the drug,"[1]; C1 1 up to 2.5 μM, at the antioxidant concentrations tested",considerably enhanced
same,effect of GSH on the inhibitory effect of C1,[1]; GSH 5 μM,completely abrogated
same,anodic peak (irreversible oxidation),[2]; [15],0.78 V
same,cathodic peak (irreversible reduction),[2]; [15],−1.04 V
same,early apoptotic cells,[3]; 24 h,8.7%
same,late apoptotic cells,[3]; 24 h,4.9%
same,early apoptotic cells,[3]; 36 h,51.0%
same,late apoptotic cells,[3]; 36 h,7.7%
same,viability at 22.5 µM,[3]; 24 h,84.8%
same,viability at 22.5 µM,[3]; 36 h,40.4%
same,SOD activity (%),"[4]; 5 h, 7.5 µM",95.85 ± 2.50%
same,SOD activity (%),"[4]; 5 h, 15.0 µM",99.31 ± 4.30%
same,SOD activity (%),"[4]; 5 h, 22.5 µM",90.09 ± 2.30%
same,SOD activity (%),"[4]; 12 h, 7.5 µM",99.75 ± 2.90%
same,SOD activity (%),"[4]; 12 h, 15.0 µM",103.92 ± 4.30%
same,SOD activity (%),"[4]; 12 h, 22.5 µM",88.48 ± 3.20 %
same,SOD activity (%),"[4]; 24 h, 7.5 µM",98.74 ± 7.30%
same,SOD activity (%),"[4]; 24 h, 15.0 µM",89.78 ± 3.50 %
same,SOD activity (%),"[4]; 24 h, 22.5 µM",78.27 ± 4.20 %
same,ratio Gmt/Gmc (H2DCFDA fluorescence),[5],around 1
same,IC50,[6],1.49 ± 0.28 µM
same,decrease of low molecular mass thiols,"[7]; 22.5 μM, 24 h of incubation",not more than 20%
same,level of low molecular mass thiols,"[7]; all C1 concentrations tested, 5 and 12 h, data not shown",remain constant
same,increase of cytochrome c in the parasite cytosol,[8],2.5–3 times
same,IC50,[9],34.9 ± 1.2 µM
same,TryR activity (%),"[10]; 5 h, 7.5 µM",152.23 ± 6.38 %
same,TryR activity (%),"[10]; 5 h, 15.0 µM",177.17 ± 15.56 %
same,TryR activity (%),"[10]; 5 h, 22.5 µM",143.89 ± 4.80 %
same,TryR activity (%),"[10]; 12 h, 7.5 µM",188.60 ± 12.30 %
same,TryR activity (%),"[10]; 12 h, 15.0 µM",251.62 ± 15.56 %
same,TryR activity (%),"[10]; 12 h, 22.5 µM",190.55 ± 14.29 %
same,TryR activity (%),"[10]; 24 h, 7.5 µM",165.23 ± 9.80 %
same,TryR activity (%),"[10]; 24 h, 15.0 µM",198.27 ± 9.30 %
same,TryR activity (%),"[10]; 24 h, 22.5 µM",163.56 ± 7.60 %
same,APx activity (%),"[11]; 5 h, 7.5 µM",111.26 ± 7.60%
same,APx activity (%),"[11]; 5 h, 15.0 µM",98.31 ± 2.10%
same,APx activity (%),"[11]; 5 h, 22.5 µM",105.20 ± 6.20%
same,APx activity (%),"[11]; 12 h, 7.5 µM",98.30 ± 2.30%
same,APx activity (%),"[11]; 12 h, 15.0 µM",95.91 ± 4.10%
same,APx activity (%),"[11]; 12 h, 22.5 µM",93.48 ± 6.20%
same,APx activity (%),"[11]; 24 h, 7.5 µM",108.35 ± 9.20%
same,APx activity (%),"[11]; 24 h, 15.0 µM",105.30 ± 6.56%
same,APx activity (%),"[11]; 24 h, 22.5 µM",96.25 ± 5.80%
same,Depolarized cells,[12]; 24 h,77%
same,Depolarized cells,[12]; 36 h,84%
same,IC50,[13],1740 ± 300 nM
Cc1ccc(NC(=S)c2c3n(c(=O)c4ccccc24)CCN3)cc1 [Compound C3],IC50,[6],1.5 ± 0.3 µM
same,IC50,[9],246 ± 18 µM
same,IC50,[13],1500 ± 320 nM
"O=c1c2ccccc2cc2n1CCN2 [heterocycle precursor, 2,3-dihydroimidazo[1,2-b]isoquinolin-5(1-H)-one]",cathodic and anodic peaks,[2]; subjected to the same potentials as C1,Neither the cathodic nor the anodic peaks were measurable
same,IC50,[6],> 25 µM
"O=C(Cn1ccnc1[N+](=O)[O-])NCc1ccccc1 [Bnz, Benznidazole, reference compound]",IC50,[6],5.49 ± 0.89 µM
same,IC50,[9],30.3 ± 2.85 µM
same,CC50 at 48 h,[14],82.8 ± 2.75 µM
"O=c1c2ccccc2c(C(=S)Nc2ccc(Cl)cc2)c2n1CCN2 [Compound C2, N-(4-chlorophenyl)-5-oxo-1,2,3,5-tetrahydroimidazo[1,2-b]isoquinolin-10-carbothioamide]",IC50,[6],5.57 ± 0.53 µM
same,IC50,[9],306 ± 15 µM
same,IC50,[13],3630 ± 510 nM
"O=C(Nc1ccccc1)c1c2n(c(=O)c3ccccc13)CCN2 [D, 5-oxo-N-phenyl-1,2,3,5-tetrahydroimidazo[1,2-b]isoquinolin-10-carboxamide]",IC50,[6],> 25 µM
same,IC50,[9],> 300 µM
same,IC50,[13],11400 ± 1210 nM
